One test relates to genital mucosal tissue. Kind of test: Entry of CFSE-labeled splenocytes into genital mucosal tissue. It is filed as in vivo. As to conditions: CFSE-labeled splenocytes ivag, 12 hours; vs estrus-stage mice. Here is the method: Estrus-stage or DMPA-treated mice were administered CFSE-labeled splenocytes intravaginally and euthanized 12 hours later. Relative leukocyte infiltration of vaginal mucosal tissue in estrus-stage vs. DMPA-treated mice was evaluated by confocal microscopy.
These findings established progestin mediated increases in mucosal permeability promote both passive entry of low molecular weight molecules and incursion of larger-sized cells that are more reliant on energy-dependent processes.

For another test, the system named is HSV-1. The experiment in a line: Genital HSV-1 GFP infection, virus replication in vaginal epithelium. The test is classed as in vivo, mice. As to conditions: 1.5 ug/30 uL ivag 24 h prior to 3×10^3 PFU HSV-1 GFP; tissue 24 h after infection. On the procedure: Estrus-stage or DMPA-treated mice were intravaginally administered vehicle or recombinant mouse Fc-EFNA3 at 1.5 ug/30 uL 24 h prior to genital infection with 3×10^3 PFU HSV-1q GFP (fluorescent virus). Vaginal tissue was recovered 24 h after infection and evaluated for HSV-1 replication in the vaginal epithelium using confocal microscopy. […] To evaluate if treatment with rm-EphrinA3 protects mice from lethal HSV-2 infection, DMPA-treated mice were intravaginally administered Fc- or His-tagged versions of the rm-protein prior to infection. […] Because the microarray data indicated EphrinA1, EphrinA2, EphrinA3, EphrinA4, and EphrinA5 were upstream regulators of Dsg1 and Dsc1 expression in the mouse vagina, we hypothesized that capacity of EphrinA3 to increase cell-cell adhesion molecule expression may be shared by other members of the EphrinA family.

The subject of test [1] is genital mucosal barrier. The experiment in a line: Murine tissue permeability assay, low molecular weight fluorescent molecules given intravaginally. It is filed as in vivo, mice. Conditions: germ-free mice.
The next test relates to genital mucosa. The experiment in a line: Entry of activated hPBMCs into vaginal tissue of humanized mice. The test is classed as in vivo, hPBMC-engrafted NSG mice. As to conditions: CFSE-labeled activated hPBMCs ivag, 15 h; DMPA vs DMPA and E cream. Here is the method:
Because mice treated with DMPA and E were HSV-2 resistant and DMPA facilitated entry of leukocytes into vaginal tissue, it was posited that exogenous E blocks HIV-1 acquisition in a humanized mouse model of cell-associated HIV transmission. Human PBMC (hPBMCs)-engrafted NSG mice treated with DMPA or DMPA and E cream were ivag inoculated with CFSE-labeled activated hPBMCs. 15 h later, entry of these cells into vaginal tissue was examined by confocal microscopy. […] Humanized NSG mice treated as described above were also ivag infected with cell-associated HIV-1 (10^6 hPBMCs infected with HIV-1 Ba-L). 10 days later, serum was collected to quantify HIV-1 load via qRT-PCR.
To evaluate mucosal permeability to activated leukocytes, 10^6 human peripheral blood mononuclear cells (hPBMC)/ml were plated in RPMI-1640 supplemented with 10% FBS, 2 mM L-glutamine, 1 mM sodium pyruvate, non-essential amino acids, 50 μM 2-mercaptoethanol, 100 U/ml penicillin, 100 μg/ml streptomycin and 50 μg/ml gentamycin (Mediatech, Manassas, Va.) (henceforth termed complete medium). Plated cells were stimulated for 48 hours with 5 μg/ml of phytohemagglutinin (PHA) (Sigma-Aldrich, St. Louis Mo.), centrifuged, re-suspended (2×10^6 cells/ml) in complete media supplemented with 10 IU/ml recombinant human IL-2 (rhIL-2) (PeproTech, Rocky Hill, N.J.), and incubated another 5 days. […]

Test [2] relates to vaginal microbiota / pro-inflammatory mediators. The experiment in a line: Bacteria and inflammation in genital mucosa. The test is classed as in vivo, mice. The text has this:
While prior clinical studies identified increased inflammation in the genital tracts of women using DMPA, the underlying mechanism for this effect had been undefined. Because DMPA increased genital mucosal permeability, it was posited DMPA increases inflammation by promoting entry of the vaginal microbiota into mucosal tissue.

In a further test the test system is DSG1 protein. Kind of test: DSG1 protein levels in vaginal tissue, immunofluorescent staining and confocal microscopy. The test is classed as in vivo, mice. Conditions: progestin-treated mice vs mice in estrus. On the procedure:
Excised mouse vaginas were formaldehyde fixed and paraffin embedded (FFPE), and 10 μm sections mounted on glass slides and de-paraffinized by sequential immersion in 100% xylene, 100% ethanol, 96% ethanol, and sterile DEPC-treated water. Antigen retrieval was performed using 10 mM sodium citrate buffer (pH 6.0) containing 0.05% Tween 20 (both Sigma-Aldrich) (20 minutes at 95° C.). After 3 PBS washes, sections were incubated overnight in 10% normal goat serum (Abcam, Cambridge Mass.) at 4° C., then incubated for 1 h at ambient temperate with rabbit anti-desmoglein-1 (clone EPR6766(B)) antibody, washed and incubated for 1 h with AlexaFluor® 488-labeled goat anti-rabbit IgG (antibodies from Abcam) (all antibodies were diluted in PBS with 1% BSA and 0.05% Tween 20). Sections were stained with DAPI and evaluated for levels of DSG1 protein (defined by calculating pixel numbers per 100 μm^2) using confocal microscopy and ImageJ software.

The test system of test [3] is genital mucosal barrier. Kind of test: Murine tissue permeability assay, low molecular weight fluorescent molecules given intravaginally. It is filed as in vivo, mice. Here is the method: Effects of progestins on genital mucosal barrier permeability were evaluated by intravaginally (ivag) administering 457 Da and 70 KDa-sized fluorescent molecules to mice in estrus or diestrus-stage or after DMPA or LNG treatment. Mice were grouped as follows: untreated in estrus, untreated in diestrus, DMPA treated, or LNG treated. The mice were intravaginally administered a PBS solution containing Lucifer yellow (457 Da) and Texas-Red-conjugated dextran (70 KDa). Animals were euthanized 45 minutes later to assess vaginal tissue penetration of these molecules by confocal microscopy. […] Mucosal permeability was increased moderately by diestrus, but dramatically by DMPA or LNG. Conversely, permeability increases were negligible in estrus-stage mice and mice treated with MePRDL or DMPA and RU486. This indicates exogenous progestins increase genital mucosal permeability.
To evaluate mucosal permeability to low molecular weight molecules, indicated groups of mice were sedated, and 10 μL of a PBS solution containing 62.5 μg of dextran Texas-Red® (DR) (MW=70,000 Da) and 50 μg of Lucifer yellow CH, lithium salt (LY) (MW=457.2 Da) (both from Life Technologies) administered intravaginally. 45 minutes later, mice were euthanized, and excised vaginal tissue fixed in formaldehyde. Fixed tissue was embedded in agarose, and 200-300 μm specimens were sectioned with a vibratome. After counterstaining with 4,6-diamidino-2-phenylindole (DAPI), confocal microscopy images were acquired by sequential scanning to prevent fluorescence crossover.

[4] abbreviates: DMPA-treated vs. estrus-stage mice.

“Also recorded” adds a separate entry of the source.

Regarding `CC(=O)O[C@]1(C(C)=O)CC[C@H]2[C@@H]3C[C@H](C)C4=CC(=O)CC[C@]4(C)[C@H]3CC[C@@]21C` [DMPA], in the test on genital mucosal tissue, the “leukocyte entry into genital tissue” value is recorded as “facilitates entry of leukocytes into genital mucosal tissue; also recorded: promoted leukocyte entry into genital tissue”. Further, in the test on HSV-1, the “Foci of virus replication observed in vaginal epithelium” value is recorded as “observed”. For the same compound, the permeability entry in the test on genital mucosal barrier [1] is on record as “increased permeability”. The “penetration of activated hPBMCs into genital mucosa” value in the test on genital mucosa is given as “more readily penetrated the genital mucosa”. Besides, in test [2] (setting [4]), the “Gram-negative bacteria in the mucosa” value was “more Gram-negative bacteria” and the “levels of pro-inflammatory mediators in the mucosa” value is given as “higher levels of pro-inflammatory mediators”. Further, the inflammation result in test [2] (germ-free mice) was “not inflammation”. Besides, in the test with DSG1 protein, the “DSG1a protein expression in vaginal tissue” value is “significantly reduced”. Besides, the “penetration of the 457 Da molecules into vaginal tissue” value with genital mucosal barrier [3] (confocal images, 45 minutes after ivag administration) is listed as “greatest penetration”. In addition, the Mucosal permeability increase result in the test on genital mucosal barrier [3] (mice, ivag Lucifer yellow (457 Da) and Texas-Red dextran (70 KDa), 45 minutes, confocal microscopy) is given as “dramatically”.
